Data reported in ChEMBL document CHEMBL1134725, “2-(Anilinomethyl)imidazolines as alpha(1)-adrenoceptor agonists: the identification of alpha(1A) subtype selective 2'-carboxylic acid esters and amides” (Bioorg Med Chem Lett, 2001).

Experiments:
[1] = biological target: T1, Alpha-1A adrenergic receptor (Homo sapiens) (UniProt P35348); test: Efficacy against alpha 1A adrenoceptor in human expressed as phenylephrine response at the dose of 40 uM; type: functional
T1 sequence (whole entry): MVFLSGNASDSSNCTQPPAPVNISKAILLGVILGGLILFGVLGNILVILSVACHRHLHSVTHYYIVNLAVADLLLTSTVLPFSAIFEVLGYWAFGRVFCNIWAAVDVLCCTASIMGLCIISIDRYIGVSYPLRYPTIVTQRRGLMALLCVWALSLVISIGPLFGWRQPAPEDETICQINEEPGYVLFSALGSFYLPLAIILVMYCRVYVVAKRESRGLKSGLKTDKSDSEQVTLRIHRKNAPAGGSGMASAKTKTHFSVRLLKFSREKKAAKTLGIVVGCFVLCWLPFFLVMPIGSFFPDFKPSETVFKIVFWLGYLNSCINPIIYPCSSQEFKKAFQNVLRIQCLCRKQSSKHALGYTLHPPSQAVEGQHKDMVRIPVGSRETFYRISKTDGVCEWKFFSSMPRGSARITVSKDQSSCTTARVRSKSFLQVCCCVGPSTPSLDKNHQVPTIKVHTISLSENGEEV

[2] = biological target: T2, Alpha-1A adrenergic receptor (Homo sapiens, UniProt P35348); test: Agonist potency against cloned human alpha 1A adrenoceptor expressed in rat-1 fibroblasts.; type: functional
T2 sequence (P35348 whole entry): T1 sequence (whole entry)

[3] = biological target: T3, Alpha-1D adrenergic receptor (Homo sapiens, UniProt P25100); test: Potency against cloned human alpha 1D-adrenoceptor expressed in rat-1 fibroblasts.; type: functional
T3 sequence (P25100 whole entry): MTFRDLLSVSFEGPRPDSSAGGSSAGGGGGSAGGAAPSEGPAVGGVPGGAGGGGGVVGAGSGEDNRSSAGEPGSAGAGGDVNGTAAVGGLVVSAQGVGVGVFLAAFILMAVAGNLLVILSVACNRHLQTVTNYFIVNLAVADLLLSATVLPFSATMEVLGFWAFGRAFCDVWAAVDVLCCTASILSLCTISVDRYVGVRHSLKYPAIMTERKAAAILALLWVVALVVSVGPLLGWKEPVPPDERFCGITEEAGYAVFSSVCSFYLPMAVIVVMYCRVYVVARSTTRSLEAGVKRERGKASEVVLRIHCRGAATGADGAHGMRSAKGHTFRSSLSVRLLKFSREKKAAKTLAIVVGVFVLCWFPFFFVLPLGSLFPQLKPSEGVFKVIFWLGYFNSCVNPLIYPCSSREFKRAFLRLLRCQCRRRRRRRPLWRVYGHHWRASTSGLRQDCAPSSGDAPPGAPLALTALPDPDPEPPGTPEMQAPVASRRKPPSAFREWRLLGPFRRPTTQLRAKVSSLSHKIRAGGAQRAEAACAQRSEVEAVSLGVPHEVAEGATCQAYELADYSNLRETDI

[4] = biological target: T3, Alpha-1D adrenergic receptor; test: Concentration required for 50% inhibition of binding against human Alpha-1D adrenergic receptor
[5] = biological target: T2, Alpha-1A adrenergic receptor; test: Concentration required for 50% inhibition of binding against Alpha-1A adrenergic receptor in human
[6] = biological target: T4, Alpha-1B adrenergic receptor (Homo sapiens, UniProt P35368); test: Concentration required for 50% inhibition of binding against human Alpha-1B adrenergic receptor
T4 sequence (P35368 whole entry): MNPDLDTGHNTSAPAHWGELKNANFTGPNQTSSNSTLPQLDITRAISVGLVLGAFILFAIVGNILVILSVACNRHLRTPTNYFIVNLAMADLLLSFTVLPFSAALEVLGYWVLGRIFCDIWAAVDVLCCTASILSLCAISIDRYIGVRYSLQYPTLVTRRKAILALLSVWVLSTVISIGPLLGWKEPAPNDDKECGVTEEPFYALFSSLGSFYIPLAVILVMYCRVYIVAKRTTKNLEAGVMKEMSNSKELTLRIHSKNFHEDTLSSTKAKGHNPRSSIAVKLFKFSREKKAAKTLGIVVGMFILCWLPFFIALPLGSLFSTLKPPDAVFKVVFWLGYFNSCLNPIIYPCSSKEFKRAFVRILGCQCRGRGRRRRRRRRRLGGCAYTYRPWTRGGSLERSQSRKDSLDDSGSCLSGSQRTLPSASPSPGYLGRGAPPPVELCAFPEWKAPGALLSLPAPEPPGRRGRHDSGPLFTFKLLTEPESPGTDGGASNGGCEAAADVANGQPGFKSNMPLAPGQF

[7] = biological target: T4, Alpha-1B adrenergic receptor; test: Potency against cloned human alpha 1B adrenoceptor expressed in rat-1 fibroblasts.; type: functional
[8] = biological target: T5, Alpha-1B adrenergic receptor (Homo sapiens) (UniProt P35368); test: Efficacy against alpha 1B-adrenoceptor in human expressed as phenylephrine response at the dose of 40 uM.; type: functional
T5 sequence (whole entry): T4 sequence (P35368 whole entry)

[9] = biological target: T6, Alpha-1D adrenergic receptor (Homo sapiens) (UniProt P25100); test: Tested for efficacy against alpha 1D-adrenoceptor in human expressed as phenylephrine response at the dose of 40 uM; type: functional
T6 sequence (whole entry): T3 sequence (P25100 whole entry)

| SMILES | Max [1] [%] | EC50 [2] [nM] | EC50 [3] [nM] | IC50 [4] [nM] | IC50 [5] [nM] | IC50 [6] [nM] | EC50 [7] [nM] | Max [8] [%] | Max [9] [%] |
| --- | --- | --- | --- | --- | --- | --- | --- | --- | --- |
| CC(C)OC(=O)c1ccccc1NCC1=NCCN1 | 100 | 3.16 | > 5010 | 2000 | 224 | 1780 | > 5010 |  |  |
| CNC(=O)c1ccccc1NCC1=NCCN1 | 104 | 2.51 | 10 | 89.1 | 214 | 692 | 1.58 | 99 | 115 |
| CC(C)COC(=O)c1ccccc1NCC1=NCCN1 | 68 | 501 | 251 |  |  |  | 79.4 | 90 | 59 |
| CCCCNC(=O)c1ccccc1NCC1=NCCN1 | 103 | 20 | > 5010 | 1480 | 468 | 1950 | > 5010 |  |  |
| CCC(CC)OC(=O)c1ccccc1NCC1=NCCN1 | 94 | 20 | > 5010 |  |  |  | > 5010 |  |  |
| CCC(C)OC(=O)c1ccccc1NCC1=NCCN1 (configuration not stated) | 96 | 1.26 | > 5010 |  |  |  | > 5010 |  |  |
| O=C(NC1CCCC1)c1ccccc1NCC1=NCCN1 |  | > 5010 | > 5010 |  |  |  | > 5010 |  |  |
| O=C(c1ccccc1NCC1=NCCN1)N1CCCCC1 | 105 | 398 | 398 |  |  |  | 79.4 | 106 | 88 |
| O=C(OC1CCCCC1)c1ccccc1NCC1=NCCN1 |  | > 5010 | > 5010 |  |  |  | > 5010 |  |  |
| O=C(c1ccccc1NCC1=NCCN1)N1CCCC1 | 105 | 126 | > 5010 |  |  |  | 316 | 79 |  |
| CC(C)CNC(=O)c1ccccc1NCC1=NCCN1 | 58 | 79.4 | 15.8 |  |  |  | 12.6 | 90 | 31 |
| CC(C)NC(=O)c1ccccc1NCC1=NCCN1 | 102 | 50.1 | 316 |  |  |  | 126 | 95 | 59 |
| CCCN(CC)C(=O)c1ccccc1NCC1=NCCN1 | 115 | 100 | > 5010 |  |  |  | > 5010 |  |  |
| Cc1cc(C(C)(C)C)c(O)c(C)c1CC1=NCCN1 | 74 |  |  |  |  |  |  |  |  |
| O=C(OC1CCCC1)c1ccccc1NCC1=NCCN1 | 58 | 39.8 | > 5010 |  |  |  | > 5010 |  |  |
| O=C(NC1CCC1)c1ccccc1NCC1=NCCN1 |  | > 5010 | > 5010 |  |  |  | > 5010 |  |  |
| CCC(C)NC(=O)c1ccccc1NCC1=NCCN1 (configuration not stated) | 82 | 501 | > 5010 |  |  |  | > 5010 |  |  |
| O=C(NC1CC1)c1ccccc1NCC1=NCCN1 | 99 | 15.8 | > 5010 | 1700 | 1050 | 2240 | 251 | 50 |  |
| CCOC(=O)c1ccccc1NCC1=NCCN1 | 104 | 12.6 | 63.1 |  |  |  | 158 | 105 | 41 |
| CN(C)C(=O)c1ccccc1NCC1=NCCN1 | 104 | 20 | 200 |  |  |  | 79.4 | 93 | 58 |
| c1ccc2c(CC3=NCCN3)cccc2c1 [NAPHAZOLINE] | 72 | 63.1 | > 5010 |  |  |  | > 5010 |  |  |
| CCCNC(=O)c1ccccc1NCC1=NCCN1 | 104 | 7.94 | 158 |  |  |  | 79.4 | 77 | 69 |
| CCCCOC(=O)c1ccccc1NCC1=NCCN1 | 114 | 10 | 15.8 |  |  |  | 25.1 | 63 | 31 |
| CCNC(=O)c1ccccc1NCC1=NCCN1 | 102 | 12.6 | 79.4 |  |  |  | 200 | 64 | 33 |
| c1ccc(C2CC2)c(OCC2=NCCN2)c1 [CIRAZOLINE] | 93 | 12.6 |  |  |  |  | 63.1 | 72 | 31 |
| CCN(C)C(=O)c1ccccc1NCC1=NCCN1 | 105 | 50.1 | 631 | 6760 | 2040 | 10500 | 251 | 98 | 69 |
| CC(C)(C)OC(=O)c1ccccc1NCC1=NCCN1 | 96 | 7.94 | > 5010 |  |  |  | 63.1 | 81 |  |
| CCN(CC)C(=O)c1ccccc1NCC1=NCCN1 | 105 | 31.6 | > 5010 | 6610 | 851 | 5890 | 2000 | 32 |  |
| COC(=O)c1ccccc1NCC1=NCCN1 | 110 | 0.794 | 0.501 |  |  |  | 0.398 | 107 | 80 |
